Source: patent publication US20080176787A1, “Parathyroid hormone analogues and methods of use” (priority 2005, published 2008)
Values joined by “and” are separate entries in the source; they are usually repeats but may differ in a detail not shown here. Equal values may be shown once. Read-outs that look alike come from different tables or passages of the source. Positions of bridges follow the written chain, without caps; N, C: chain ends. Residues, ends and D or L forms follow the SMILES beside them.

Legend:
[1] = tested on: monkey; experiment: Toxicity, 12 mth monkey; format: in vivo
Excerpt: (§1) A NoAEL was not established for the monkey. […] Ostabolin-C™ is at least 4-fold safer than PTH-(1-34).

[2] = Toxicity, 12 mth monkey; format: in vivo; conditions: in vivo; Ostabolin C, 12 mth monkey
Excerpt: as §1

[3] = Phase II pharmacokinetic evaluation of subcutaneous Ostabolin-C (Baseline and Week 12 subset); format: in vivo, human; set-up: AUC(0-24): unit: pg·h/mL
Description: The objective of this portion of the study was to evaluate the pharmacokinetics of Ostabolin-C under steady state conditions when given subcutaneously (sc) once a day to post-menopausal female subjects with low bone mineral density.
After Screening procedures and a 2-week placebo run-in phase, subjects were to be dosed once a day for 16 weeks with either Placebo or Ostabolin-C (7.5, 15, 30 or 45 μg). A subset of subjects from all treatment groups had blood collected for measurements of Ostabolin-C in order to determine PK parameters and compare them to prior studies.
The full study duration of the study was 22 weeks, which included a 6-week screening period involving a 2-week placebo run-in and then 16 weeks of treatment. The subset of subjects for this component of the study was treated the same as all other subjects with the exception of the additional blood collections at baseline and Week 12.
All of the values from the Placebo subject except one (Baseline 2 hour time-point) were below the assay level of detection (i.e., 10 pg/ml). With very limited exceptions, all values from Placebo subjects in prior trials have also been below the levels of detection. Thus, this one value was considered to be a laboratory error and PK parameters for this placebo subject were not calculated.
No samples were obtained for Pre-dose at either Baseline or Week 12. In all prior studies, pre-treatment values have been below the levels of detection and 24-hour time points at doses of 40 ug and below have been below the levels of detection. Thus, no observable values were anticipated and for calculating PK the pre-treatment values for Baseline visit were set to zero.
For pre-dose at Week 12, it was also anticipated that the values would be below the levels of detection based on prior studies and that the 24-hour post dose value would verify this. Only two 24-hour time-point values were above the level of detection; i.e. 24 hours post dosing at Baseline for Subject 030-003 and 24 hours post dosing at Week 12 for Subject 030-0004. The values of both of these 24-hour time-points were marginally above the assay level of detection. Also, both of these subjects had values below the levels of detection for both the 4 hour and 6 hour time-points after dosing on the prior day. Thus, these values are most likely artifacts and not real values. No valid 24 hour sample for subject 032-0001 at Week 12 was obtained. […] Thus, for calculating PK parameters, the Pre-dose values for Week 12 were also set to zero.
The pharmacokinetic parameters that were estimated at Baseline and Week 12 are as follows:
AUC values were estimated by a simple summation of trapezoidal areas from each time period. Data from each dose group were summarized using simple statistics on an Excel® spreadsheet; i.e., average (AVG) and Standard Deviation (STD). It should be noted that particularly with the lower doses and associated low blood levels and at late time points, those values just above versus just below the assay limits of detection can have a disproportionate impact to AUC calculations. This adds to that variability of the calculated numbers.

[4] = Baseline, 7.5 ug, individual subjects, in pg·h/mL
[5] = Baseline, 15 ug, individual subjects, in pg·h/mL
[6] = Baseline, 45 ug, individual subjects, in pg·h/mL
[7] = Week 12, 7.5 ug, individual subjects, in pg·h/mL
[8] = Week 12, 30 ug, individual subjects, in pg·h/mL

## CC[C@H](C)[C@H](NC(=O)[C@H](CCC(=O)O)NC(=O)[C@H](CO)NC(=O)[C@@H](NC(=O)[C@@H](N)CO)C(C)C)C(=O)N[C@@H](CCC(N)=O)C(=O)N[C@@H](CC(C)C)C(=O)N[C@@H](CCSC)C(=O)N[C@@H](Cc1c[nH]cn1)C(=O)N[C@@H](CC(N)=O)C(=O)N[C@@H](CC(C)C)C(=O)NCC(=O)N[C@@H](CCCCN)C(=O)N[C@@H](Cc1c[nH]cn1)C(=O)N[C@@H](CC(C)C)C(=O)N[C@@H](CC(N)=O)C(=O)N[C@@H](CO)C(=O)N[C@@H](CCSC)C(=O)N[C@@H](CCC(=O)O)C(=O)N[C@@H](CCCN=C(N)N)C(=O)N[C@H](C(=O)N[C@H]1CCC(=O)NCCCC[C@@H](C(=O)N[C@@H](CC(C)C)C(=O)N[C@@H](CC(C)C)C(=O)N[C@@H](CCC(N)=O)C(=O)N[C@@H](CC(=O)O)C(=O)N[C@H](C(N)=O)C(C)C)NC(=O)[C@H](CCCN=C(N)N)NC(=O)[C@H](CC(C)C)NC(=O)[C@H](Cc2c[nH]c3ccccc23)NC1=O)C(C)C [Ostabolin-C, [Leu^27]cyclo[Glu^22-Lys^26]-PTH-(1-31)-NH2] (H-SVSEIQLMHNLGKHLNSMERVEWLRKLLQDV-NH2; lactam 22-26)
[1]; 12 mth monkey
  fold less nephrotoxic than PTH-(1-34): >4-fold less
  hypercalaemic (DIFFERENCES column): Ostabolin-C not
[1]; Ostabolin C 0, 2, 10, 25 μg/kg, 12 mth monkey
  Bone hypertrophy: hypertrophy all
[1]; pre-clinical toxicity
  fold safer than PTH-(1-34): at least 4 fold
  nephrotoxicity: nephrotoxic only in monkeys
[2]
  NOAEL at 12 mth: 2 µg/kg
[3]; Baseline, 7.5 ug, individual subjects
  Tmax: 1.00
[3]; Baseline, 7.5 ug, individual subjects, in pg/mL
  Cmax: 27.75 and 33.15
[3]; [4]
  AUC(0-4): 11.71 and 16.25 and 88.35
  AUC(0-24): 11.71 and 16.25 and 99.67
[3]; Baseline, 15 ug, individual subjects, in pg/mL
  Cmax: 57.54 and 46.59
[3]; [5]
  AUC(0-4): 82.31 and 74.38
  AUC(0-24): 82.31 and 74.38
[3]; Baseline, 45 ug, individual subjects, in pg/mL
  Cmax: 114.54 and 233.33
[3]; [6]
  AUC(0-4): 344.39
  AUC(0-24): 370.47
[3]; Week 12, 7.5 ug, individual subjects, in pg/mL
  Cmax: 37.84 and 40.38
[3]; [7]
  AUC(0-4): 28.83 and 64.83
  AUC(0-24): 28.83 and 64.83
[3]; Week 12, 15 ug, individual subjects
  AUC(0-24): 164.36 and 54.29* and 110.80
[3]; Week 12, 15 ug, individual subjects, in pg/mL
  Cmax: 41.98 and 33.33 and 69.33
[3]; Week 12, 15 ug, individual subjects, in pg·h/mL
  AUC(0-4): 68.69 and 54.29 and 110.80
[3]; Week 12, 30 ug, individual subjects, in pg/mL
  Cmax: 46.75
[3]; [8]
  AUC(0-4): 142.45 and 70.73
  AUC(0-24): 214.03
[3]; after 12 weeks of dosing
  accumulation: no evidence of accumulation
[3]; female, human, blood, sc, 7.5 ug, Baseline, 7.5 ug, AVG, read-out: Tmax
  Tmax: 30 min
[3]; female, human, blood, sc, 7.5 ug, Dose 7.5, mean of Baseline and Week 12 data, read-out: AUC(0-4)
  AUC(0-t): 0.0365 ng·h/mL
[3]; female, human, blood, sc, 7.5 ug, Dose 7.5, mean of Baseline and Week 12 data, read-out: AUC(0-24)
  AUC(0-t): 0.0384 ng·h/mL
[3]; female, human, blood, sc, 7.5 ug, Dose 7.5, mean of Baseline and Week 12 data, read-out: Cmax
  Cmax: 0.0301 ng/mL
[3]; female, human, blood, sc, 7.5 ug, Dose 7.5, mean of Baseline and Week 12 data, read-out: Tmax
  Tmax: 22.8 min
[3]; female, human, blood, sc, 7.5 ug, Week 12, 7.5 ug, AVG, read-out: AUC(0-4)
  AUC(0-t): 0.0343 ng·h/mL
[3]; female, human, blood, sc, 7.5 ug, Week 12, 7.5 ug, AVG, read-out: AUC(0-24)
  AUC(0-t): 0.0343 ng·h/mL
[3]; female, human, blood, sc, 7.5 ug, Week 12, 7.5 ug, AVG, read-out: Cmax
  Cmax: 0.0331 ng/mL
[3]; female, human, blood, sc, 7.5 ug, Week 12, 7.5 ug, AVG, read-out: Tmax
  Tmax: 15 min
[3]; female, human, blood, sc, 15 ug, Baseline, 15 ug, AVG, read-out: Tmax
  Tmax: 19.8 min
[3]; female, human, blood, sc, 15 ug, Dose 15, mean of Baseline and Week 12 data, read-out: AUC(0-4)
  AUC(0-t): 0.0761 ng·h/mL
[3]; female, human, blood, sc, 15 ug, Dose 15, mean of Baseline and Week 12 data, read-out: AUC(0-24)
  AUC(0-t): 0.092 ng·h/mL
[3]; female, human, blood, sc, 15 ug, Dose 15, mean of Baseline and Week 12 data, read-out: Cmax
  Cmax: 0.0466 ng/mL
[3]; female, human, blood, sc, 15 ug, Week 12, 15 ug, AVG, read-out: AUC(0-4)
  AUC(0-t): 0.0779 ng·h/mL
[3]; female, human, blood, sc, 15 ug, Week 12, 15 ug, AVG, read-out: AUC(0-24)
  AUC(0-t): 0.11 ng·h/mL
[3]; female, human, blood, sc, 15 ug, Week 12, 15 ug, AVG, read-out: Cmax
  Cmax: 0.0482 ng/mL
[3]; female, human, blood, sc, 30 ug, Dose 30, mean of Baseline and Week 12 data, read-out: AUC(0-4)
  AUC(0-t): 0.123 ng·h/mL
[3]; female, human, blood, sc, 30 ug, Dose 30, mean of Baseline and Week 12 data, read-out: AUC(0-24)
  AUC(0-t): 0.129 ng·h/mL
